# In patent publication US11952328B2, “Selective ship inhibitors for treating disease” (THE RESEARCH FOUNDATION FOR THE STATE UNIVERSITY OF NEW YORK, priority 2018, dated 2024):
# Assays:
# RMA-Rael cells [1] = assay: Overall survival of RMA-Rael tumor challenged hosts (Kaplan-Meier); assay type: in vivo, mice; conditions: C57BL/6 hosts, 1×10^5 RMA-Rael
# Description: FIGS. 6A-6I show the survival of tumor bearing mice treated with a SHIP inhibitor. […] Hosts were treated on the day of tumor challenge and the following day as in FIG. 1. The 2-day treatment course was repeated each week for the duration of survival. […] Mice received either NK cell depleting, anti-NK1.1 antibody (PK136), or isotype control antibody prior to tumor challenge (5×10^5 RMA-Rael). The hosts received SHIP inhibitor two consecutive days each week until death. […] The hosts were treated on the day of tumor challenge and the following day as in FIG. 1. The 2-day treatment course was repeated each week for the duration of survival.
# The most clinically relevant endpoint in any cancer therapy study is not a measured decrease in tumor burden, but instead, a significant increase in survival promoted by the treatment.
# In order to further define 3AC′s capacity to control malignancy through immunomodulatory effects the capacity of 3AC to promote resistance of NSG, TcRa^−/− and NK cell depleted hosts to RMA-Rael tumor challenge was examined. As before, mice received treatment with 3AC or vehicle for two consecutive days each week followed by a five-day cessation of treatment to prevent disarming and/or exhaustion. This treatment strategy was continued indefinitely and survival was monitored (FIG. 6A). To confirm that, in addition to the chemotherapeutic effect documented in FIG. 5, 3AC-induced enhanced-NK and -T cell activity is important for the survival benefit following tumor challenge, NSG mice (mice deficient of all lymphocyte lineages) were challenged.
# To determine if T cells are required for the 3AC-mediated survival benefit, the same expirement using TcRa^−/− hosts that lack a TcR-ab^+ T cell compartment was repeated. […] To directly test the requirement for an intact NK cell compartment for 3AC-mediated increased survival after tumor challenge, the experiment as described in FIG. 6A were repeated challenging C57BL/6 hosts that were first depleted of
# NK cells. Here, prior to tumor challenge, hosts were injected with either NK cell depleting anti-NK1.1 antibody (C57BL/6-DNK) or with antibody isotype control (C57BL/6-iso) (FIG. 6B).
# The SHIP1 inhibitor 3AC was then tested in a genetic model in which the molecular target, SHIP1, was absent in a key target population of T cells, which are required for protection in the RMA-Rael lymphoma challenge model. […] Thus, SHIP inhibitor protection after tumor challenge is lost when the T cell compartment lacks the molecular target (SHIP1) in T cells.
# There are two paralogs of SHIP: SHIP1 which is expressed in a limited range of tissues including hematopoietic cells, and SHIP2 which is expressed by a wide array of cell types. To determine if SHIP2 may also play a role in host defense against malignancy as described above tumor bearing mice were treated with small-molecule inhibitors against SHIP2 as well. […] Stem Cells. (2015); 33: 848-858; Hoekstra, E. et al., Lipid phosphatase SHIP2 functions as oncogene in colorectal cancer by regulating PKB activation. Oncotarget. (2016) 7: 73525-73540). Like 3AC, pan-SHIP1/2 inhibitors such as K118 are also cytotoxic for RMA-Rael cells in vitro. The pan SHIP1/2 inhibitory compounds K118 and K149 were compared to the SHIP1 selective compound 3AC.
# Simultaneous inhibition of both SHIP1and SHIP2 may be deleterious to the immune response promoted by 3AC. […] In the study, the SHIP1 selective inhibitor 3AC that provides for protection after RMA-Rael challenge was simulataneously co-administered.
# SHIP2 = target: T1, SHIP2 (Homo sapiens, UniProt O15357); conditions: Suwa et al. 2009; cited from earlier work
# T1 sequence (O15357 1-1258): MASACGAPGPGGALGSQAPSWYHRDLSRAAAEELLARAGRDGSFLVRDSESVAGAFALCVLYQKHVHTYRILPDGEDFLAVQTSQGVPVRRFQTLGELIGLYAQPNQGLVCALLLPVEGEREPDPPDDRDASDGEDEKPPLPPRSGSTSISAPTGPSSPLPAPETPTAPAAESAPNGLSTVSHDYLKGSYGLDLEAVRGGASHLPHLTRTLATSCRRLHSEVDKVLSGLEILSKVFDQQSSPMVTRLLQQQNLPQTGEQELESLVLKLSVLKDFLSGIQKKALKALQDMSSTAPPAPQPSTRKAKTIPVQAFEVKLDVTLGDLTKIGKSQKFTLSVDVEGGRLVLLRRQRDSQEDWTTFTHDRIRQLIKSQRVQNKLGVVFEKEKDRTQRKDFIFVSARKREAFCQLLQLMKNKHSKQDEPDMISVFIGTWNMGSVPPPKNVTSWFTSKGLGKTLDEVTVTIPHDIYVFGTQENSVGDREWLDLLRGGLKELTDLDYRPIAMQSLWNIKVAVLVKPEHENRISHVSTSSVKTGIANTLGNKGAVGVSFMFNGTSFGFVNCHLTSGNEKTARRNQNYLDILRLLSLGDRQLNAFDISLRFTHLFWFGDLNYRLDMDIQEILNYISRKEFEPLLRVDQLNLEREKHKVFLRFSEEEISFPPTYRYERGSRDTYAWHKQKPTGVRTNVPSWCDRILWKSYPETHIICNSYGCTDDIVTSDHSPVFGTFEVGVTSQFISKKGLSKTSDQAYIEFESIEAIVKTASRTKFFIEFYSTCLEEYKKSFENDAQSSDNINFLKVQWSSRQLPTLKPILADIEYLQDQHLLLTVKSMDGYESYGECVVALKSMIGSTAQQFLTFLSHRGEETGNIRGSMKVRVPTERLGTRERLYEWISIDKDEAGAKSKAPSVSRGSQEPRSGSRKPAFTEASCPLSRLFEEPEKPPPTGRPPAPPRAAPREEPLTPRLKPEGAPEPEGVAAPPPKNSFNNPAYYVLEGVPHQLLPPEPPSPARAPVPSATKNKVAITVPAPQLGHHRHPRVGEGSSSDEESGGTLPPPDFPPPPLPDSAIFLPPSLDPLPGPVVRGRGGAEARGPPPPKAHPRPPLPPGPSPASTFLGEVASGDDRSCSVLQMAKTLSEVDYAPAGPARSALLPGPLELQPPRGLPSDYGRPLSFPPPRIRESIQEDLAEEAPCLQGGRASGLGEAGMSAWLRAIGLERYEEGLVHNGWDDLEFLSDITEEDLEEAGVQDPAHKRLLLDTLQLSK
# RMA-Rael cells [2] = assay: RMA-Rael viability following in vitro treatment; assay type: cell-based, mice; conditions: 24 h, doses given as 5-20 pM, vs solvent only
# Text: FIGS. 5A-5I show the effects of SHIP1 inhibitor as a chemotherapeutic. […] FIG. 5D and FIG. 5E show the representative histograms and box-and-whisker plots of FasL expression by NK cells from C56BL/6 (p=0.0002; Unpaired t test with Welch's correction) or RAG1−/− (p<0.0001; Mann-Whitney U test) tumor challenged, SHIP inhibitor or vehicle treated hosts. […] (NK cells p=0.0192; Unpaired t test with Welch's correction. T cells p=0.0659; Mann-Whitney U test). Additionally, FIGS. 5A-5G show the analysis by flow cytometry on day 3 after hosts receive SHIP inhibitor or vehicle for two consecutive days. NK cells are defined as NK1.1+CD3ε−. The graphs are representative of at least two independent experiments with at least four SHIP inhibitor and vehicle treated mice. […] Viability is expressed as frequency at a given concentration expressed as a percentage of solvent only treated cells. The kill curve summarizes pooled data from three independent experiments using six replicate wells/concentration with mean ±SEM indicated (n=18 per group. One-way ANOVA with Dunnett's multiple comparisons. 0 pM vs. 20 pM Adjusted p value =0.0001. 0 pM vs. 15 pM Adjusted p value =0.0001. 0 pM vs. 10 pM Adjusted p value =0.0001. 0 pM vs. 7.5 pM Adjusted p value =0.0001. 0 pM vs. 5 pM Adjusted p value =0.0001). […]
# SHIP1/2 = conditions: Brooks et al. 2015; Hoekstra et al. 2016; cited from earlier work
SMILES,"overall survival (protection) (RMA-Rael cells [1]; FIG. 6I, alone vs vehicle)","overall survival (effect on protection by 3AC) (RMA-Rael cells [1]; FIG. 6I, co-administered with 3AC)",selectivity for SHIP2 (SHIP2),RMA-Rael viability (direct killing) (RMA-Rael cells [2]),"overall survival (protection) (RMA-Rael cells [1]; FIG. 6H, vs vehicle)",SHIP1/2 inhibitory activity (SHIP1/2)
C[C@H](NC(=O)c1sccc1OCc1ccc(Cl)cc1)c1ccccc1 [AS1949490],no protection,completely abrogated the protective effect of 3AC,high degree of selectivity,–,–,–
"C[C@@]12CCC[C@H]1[C@@H]1CC[C@H]3C[C@@H](N)CC[C@]3(C)[C@H]1CC2.Cl [Compound K118, 3β-amino-5α-androstane hydrochloride]",–,–,–,cytotoxic,no protection,pan-SHIP1/2 inhibitory activity
"CSc1ccc2c(c1)c(CCN)c(C)n2Cc1ccc(Cl)cc1.Cl [Compound K149, 2-[1-(4-chlorobenzyl)-2-methyl-5-(methylmercapto)-1H-3-yl] ethanaminium chloride]",–,–,–,–,no protection,pan-SHIP1/2 inhibitory activity
